Results published in US20260265244A1, “HETEROCYCLIC COMPOUNDS AS STING ANTAGONISTS” (Boehringer Ingelheim International GmbH, priority 2022, published 2026).

Experiments:
[1] = tested on: STING inhibition in human whole blood (IFNα2α production); assay: Human whole blood assay (HWBA): cGAMP-stimulated IFNα2α production; type: cell-based; conditions: Homo sapiens
Experimental: For the detection of STING inhibition in physiological environment human whole blood was stimulated by the cyclic dinucleotide cGAMP. Pathway activity was monitored by measuring the IFNα2α production.
Assay method: Compounds were delivered as 10 mM DMSO solution and serial diluted and transferred to the 96-well Cell culture Plate (Corning #3595), prefilled with 20 μl OptiMEM (Gibco #11058-021) in each well, using an Echo acoustic dispenser. Typically, 8 concentrations were used with the highest concentration at 10 μM in the final assay volume followed by ~1:5 dilution steps. DMSO concentration was set to 0.1% in the final assay volume. The 96 well assay plate contained 9 test compounds, a reference compound and DMSO in control wells.
Collection of human whole blood from 3 or more healthy donors (male or female, no medication for 7 days, exception contraceptive and thyroxine) as Na-citrate blood (e.g. 3.8% in Monovettes from Sarstedt) is conducted in parallel. Whole blood was kept at room temperature for a maximum of 3 hours after collection until use in the assay.
160 μl of the whole blood samples were transferred to each well of the 96-well assay plates filled with compound/OptiMEM. All assay plates are prepared as duplicates with blood from different donors. Blood plates were kept at room temperature for 60 minutes and continuous shaking with 450 rpm, covered with the lid, but not sealed.
A 10× cGAMP assay solution was diluted from a 2 mM stock solution in 1×HBSS immediately before use at room temperature. 20 μl of the 10× cGAMP/HBSS were added to all compound and all high control wells, whereas HBSS only was added to all low control wells.
After covering assay plates with aera seals and the lid, blood plates were kept at room temperature for 30 minutes and continuous shaking with 450 rpm, followed by an overnight incubation of 22 h at 37° C. in the incubator, without shaking.
For the detection of IFNα-2α in human plasma, the biotinylated capture antibody (Antibody set IFNA2, Meso Scale Diagnostics #B21VH-3, including coating and capture antibody) was diluted 1:17.5 in Diluent 100 (Meso Scale Diagnostics #R50AA-4, according to the manufacturer. U-Plex MSD GOLD 96-well Small Spot Streptavidin SECTOR Plates (Meso Scale Diagnostics #L45SA-5) were coated with 25 μl diluted capture antibody. Coated plates were incubated for 60 min at room temperature under continuous shaking at 700 rpm. MSD IFNα-2α plates were washed three times with 150 μl wash buffer (1×HBSS, 0.05% Tween).
After blocking the plates with 100 μl block solution/well (1×HBSS with 0.2% Tween, 2% BSA) for 60 min at room temperature and continuous shaking at 700 rpm, plates were emptied as dry as possible by dumping just before continuing with the human plasma. Whole Blood assay plates were centrifuged at 1600 rpm for 10 minutes. 25 μl of supernatant was transferred with a pipetting robotics from each whole blood plate to the corresponding IFNα-2α plate. Plates were sealed with microplate seals and kept at room temperature again under continuous shaking at 700 rpm for two hours. Next MSD IFNα-2α plates were washed three times with 150 μl wash buffer (1×HBSS, 0.05% Tween), before adding 25 μl MSD SULFO-TAG IFNα-2α Antibody solution (1:100 diluted in Diluent 3 (Meso Scale Diagnostics #R50AP-2) to each well of the plates. Afterwards plates were sealed with microplate seals and kept at room temperature again under continuous shaking at 700 rpm for two hours. Finally MSD IFNα-2α plates were washed three times with 150 μl wash buffer (1×HBSS, 0.05% Tween). 150 μl 2×Read buffer was added to each well and plates were immediately measured with the MSD Sector S600 Reader using the vendor barcode.
Data evaluation and calculation: For data evaluation and calculation, % control calculation of each well was based on the mean of high (cGAMP stimulated control) and mean of low (unstimulated control) controls by using the following formula: […]

[2] = target: T1, human STING WT (R232) (Homo sapiens, UniProt Q86WV6, H232R); assay: Human STING HTRF binding assay (competitive, Cisbio 64BDSTGPEG)
T1 construct: purchased Cisbio 64BDSTGPEG
Experimental: Binders to human STING WT (R232) were identified using a competitive HTRF assay format (Cisbio 64BDSTGPEG), which uses d2-labeled STING ligand, a 6His (SEQ ID NO: 2) tagged human STING protein, and an anti 6His (SEQ ID NO: 2) Cryptate-labeled antibody. Compounds compete with the STING ligand-d2 and thereby prevents FRET from occurring, which can be measured by an EnVision™ reader (PerkinElmer).
Assay method: Compounds were delivered as 10 mM DMSO solution, serially diluted by an Agilent Bravo Workstation and transferred to the 384 well assay plate (Perkin Elmer #6005359) using a Cybiwell dispenser. Typically, 8 concentrations were used with the highest concentration at 10 μM or 1 μM in the final assay volume followed by ~1:5 dilution steps. DMSO concentration was set to 1% in the final assay volume. The 384 well assay plate contained 20 test compounds and DMSO in column 23 and 24. A cGAMP standard dilution row was prepared according to the manufacturer and transferred to each assay plate. After transfer of compound solution or dilution buffer for negative (high) and positive (low) controls, 5 μl of the human STING protein (cyclic binding domain (residues 138-379) of the WT R232 human version, fused to a 6 His tag (SEQ ID NO: 2) at the Nter part; 1:50 dilution in detection buffer) were dispensed to all wells except of the positive control, which received detection buffer only. Plates were the centrifuged for 20 sec at 1000 rpm. After that, 10 μl of Anti-6His-Cryptate antibody/Sting ligand-d2 mix was added to all wells using a Multidrop combi dispenser, followed by another sec/1000 rpm centrifugation step. After an incubation of the plates for 180 min at room temperature, […] at […] (HTRF ratio) was measured using an Envison Reader (PerkinElmer).
Data evaluation and calculation: For data evaluation and calculation, HTRF ratios were calibrated using the cGAMP standard curve. After that, the measurement of the low control was set as 0% control and the measurement of the high control was set as 100% control. The IC50 values were calculated using the standard 4 parameter logistic regression formula. Calculation: [y=(a−d)/(1+(x/c)^b)+d], a=low value, d=high value; x=conc M; c=IC50 M; b=slope;

T1 sequence (Q86WV6 138-379 H232R): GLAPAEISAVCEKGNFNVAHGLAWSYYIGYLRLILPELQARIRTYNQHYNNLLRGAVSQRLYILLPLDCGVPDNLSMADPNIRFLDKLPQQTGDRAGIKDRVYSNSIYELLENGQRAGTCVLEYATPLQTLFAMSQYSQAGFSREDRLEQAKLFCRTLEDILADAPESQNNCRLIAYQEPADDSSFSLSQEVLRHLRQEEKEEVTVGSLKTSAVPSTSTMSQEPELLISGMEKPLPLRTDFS

IC50 [1] [nM] | IC50 [2] [nM] | Structure (SMILES)
82 | 16.1 | Cc1c(C(C)C)c(-c2cccc3nn(C[C@H](O)c4ccccc4)cc23)nn1-c1cc2cn(C)nc2nc1C(C)O (stereo partly drawn) [Example 19, (1R)-2-(4-{1-[6-(1-hydroxyethyl)-2-methyl-2H-pyrazolo[3,4-b]pyridin-5-yl]-5-methyl-4-(propan-2-yl)-1H-pyrazol-3-yl}-2H-indazol-2-yl)-1-phenylethan-1-ol]
84 | 17.4 | CSc1nc2nn(C)cc2cc1-n1nc(-c2cccc3nn(C[C@H](O)c4ccccc4)cc23)c(C(C)C)c1C [Example 20, (1R)-2-(4-{5-methyl-1-[2-methyl-6-(methylsulfanyl)-2H-pyrazolo[3,4-b]pyridin-5-yl]-4-(propan-2-yl)-1H-pyrazol-3-yl}-2H-indazol-2-yl)-1-phenylethan-1-ol]
85 | 4.9 | Cc1nc2nn(CCCN3CCCC3=O)cc2cc1-n1nc(-c2cccc3nn(C[C@H](O)c4ccccc4)cc23)c(C(C)C)c1C [Example 21, 1-{3-[5-(3-{2-[(2R)-2-hydroxy-2-phenylethyl]-2H-indazol-4-yl}-5-methyl-4-(propan-2-yl)-1H-pyrazol-1-yl)-6-methyl-2H-pyrazolo[3,4-b]pyridin-2-yl]propyl}pyrrolidin-2-one]
86 | 20 | CC(C)c1nc2nn(C)cc2cc1-c1nc(-c2cccc3nn(C[S@@+]([O-])c4ccccc4)cc23)c(C2CC2)n1C [Example 22, 2-{[(S)-benzenesulfinyl]methyl}-4-{5-cyclopropyl-1-methyl-2-[2-methyl-6-(propan-2-yl)-2H-pyrazolo[3,4-b]pyridin-5-yl]-1H-imidazol-4-yl}-2H-indazole]
89 | 18.8 | Cc1c(C(C)C)c(-c2cccc3nn(C[C@H](O)c4ccccc4)cc23)nn1-c1cc2cn(C)nc2nc1OC(C)C [Example 23, (1R)-2-(4-{5-methyl-1-[2-methyl-6-(propan-2-yloxy)-2H-pyrazolo[3,4-b]pyridin-5-yl]-4-(propan-2-yl)-1H-pyrazol-3-yl}-2H-indazol-2-yl)-1-phenylethan-1-ol]
92 | 4.9 | Cc1nc2nn(Cc3cnn(C)c3)cc2cc1-n1nc(-c2cccc3nn(C[C@H](O)c4ccccc4)cc23)c(C(C)C)c1C [Example 24, (1R)-2-[4-(5-methyl-1-{6-methyl-2-[(1-methyl-1H-pyrazol-4-yl)methyl]-2H-pyrazolo[3,4-b]pyridin-5-yl}-4-(propan-2-yl)-1H-pyrazol-3-yl)-2H-indazol-2-yl]-1-phenylethan-1-ol]
97 | 18.1 | Cc1ccc([C@@H](O)Cn2cc3c(-c4nc(-c5cc6cn(C)nc6nc5C(C)C)n(C)c4C4CC4)cccc3n2)cc1 [Example 25, (1R)-2-(4-{5-cyclopropyl-1-methyl-2-[2-methyl-6-(propan-2-yl)-2H-pyrazolo[3,4-b]pyridin-5-yl]-1H-imidazol-4-yl}-2H-indazol-2-yl)-1-(4-methylphenyl)ethan-1-ol]
110 | 42.8 | Cc1c(C(C)C)c(-c2cccc3nn(C[C@H](O)c4ccccc4)cc23)nn1-c1cc2cn(C)nc2nc1CN1CCOCC1 [Example 26, (1R)-2-[4-(5-methyl-1-{2-methyl-6-[(morpholin-4-yl)methyl]-2H-pyrazolo[3,4-b]pyridin-5-yl}-4-(propan-2-yl)-1H-pyrazol-3-yl)-2H-indazol-2-yl]-1-phenylethan-1-ol]
110 | 14.5 | Cc1nc2nn(C)cc2cc1-n1nc(-c2cccc3nn(C[C@H](OCF)c4ccccc4)cc23)c(C(C)C)c1C [Example 27, 4-(1-{2,6-dimethyl-2H-pyrazolo[3,4-b]pyridin-5-yl}-5-methyl-4-(propan-2-yl)-1H-pyrazol-3-yl)-2-[(2R)-2-(fluoromethoxy)-2-phenylethyl]-2H-indazole]
110 | 8.4 | Cn1c(-c2cc3cn(CCCN4CCCC4=O)nc3nc2C2CC2)nc(-c2cccc3nn(C[C@H](O)c4ccccc4)cc23)c1C1CC1 [Example 28, 1-{3-[6-cyclopropyl-5-(5-cyclopropyl-4-{2-[(2R)-2-hydroxy-2-phenylethyl]-2H-indazol-4-yl}-1-methyl-1H-imidazol-2-yl)-2H-pyrazolo[3,4-b]pyridin-2-yl]propyl}pyrrolidin-2-one]
110 | 2.8 | Cc1c(C2CC2)c(-c2cccc3nn(C[C@H](O)c4ccccc4)cc23)nn1-c1cc2cn(C)nc2nc1C1CC1 [Example 29, (1R)-2-[4-(4-cyclopropyl-1-{6-cyclopropyl-2-methyl-2H-pyrazolo[3,4-b]pyridin-5-yl}-5-methyl-1H-pyrazol-3-yl)-2H-indazol-2-yl]-1-phenylethan-1-ol]
110 | 18.2 | CCO[C@@H](Cn1cc2c(-c3nn(-c4cc5cn(C)nc5nc4C)c(C)c3C(C)C)cccc2n1)c1ccccc1 [Example 30, 4-(1-{2,6-dimethyl-2H-pyrazolo[3,4-b]pyridin-5-yl}-5-methyl-4-(propan-2-yl)-1H-pyrazol-3-yl)-2-[(2R)-2-ethoxy-2-phenylethyl]-2H-indazole]
110 | 8.6 | Cc1nc2nn(CCCO)cc2cc1-n1nc(-c2cccc3nn(C[C@H](O)c4ccccc4)cc23)c(C(C)C)c1C [Example 32, 3-[5-(3-{2-[(2R)-2-hydroxy-2-phenylethyl]-2H-indazol-4-yl}-5-methyl-4-(propan-2-yl)-1H-pyrazol-1-yl)-6-methyl-2H-pyrazolo[3,4-b]pyridin-2-yl]propan-1-ol]
110 | 6.1 | CC(C)n1cc2cc(-c3nc(-c4cccc5nn(C[C@H](O)c6ccccc6)cc45)c(C4CC4)n3C)c(C3CC3)nc2n1 [Example 33, (1R)-2-(4-{5-cyclopropyl-2-[6-cyclopropyl-2-(propan-2-yl)-2H-pyrazolo[3,4-b]pyridin-5-yl]-1-methyl-1H-imidazol-4-yl}-2H-indazol-2-yl)-1-phenylethan-1-ol]
